Molecular target: CDK12 (Homo sapiens, UniProt Q9NYV4)
Assay: Biochemical assay for CDK12 (LANCE TR-FRET, IC50 determination)
Details: for IC50: CDK12, IC50 class, read-out: IC50 μM (in range); for inhibition at 10 µM / CDK12 % Inhibition @ 10 μM: compound at 10 μM; for inhibition at 10 µM: read-out: CDK12 % Inhibition @ 10 μM
Procedure: Biochemical Assay for CDK12 (IC50 Determination):
The inhibitory activity of the test compounds was assessed by the LANCE TR-FRET assay, which detects the ATP-dependent phosphorylation of an ULight-4E-BP1 (Thr37/Thr46) substrate peptide (100 nM) by CDK12 (30 nM). Briefly, the enzyme reaction was run in reaction buffer (25 mM HEPES (pH 7.5), 10 mM MgCl2, […], 0.01% Triton x, 1 mM DTT). The assay was performed in 384-well plate format. The end concentration of the ATP substrate was […], and that of the ULight-4E-BP1 (Thr37/Thr46) substrate peptide was 100 nM, and of CDK12 was 30 nM. Pre-incubation of the compound and enzyme was performed for 60 min at room temperature. After 60 min incubation at room temperature, the reaction was terminated by the addition of 40 mM EDTA and 0.5 nM Eu-labeled anti-phospho-eIF4E-binding protein (Thr37/46) antibody in LANCE detection buffer. Time-resolved fluorescence (excitation, 320 nm; emission donor, 615 nm; emission acceptor, 665 nm) was monitored by using 2030 multilabel reader Victor5 (PerkinElmer). The Fluorescence emission of the samples were measured and the ratio was plotted against the compound concentration to generate the dose response curve. The IC50 values were derived by fitting a sigmoidal dose-response curve to a plot of assay readout over inhibitor concentration. All fits were computed with the program Prism 5.03 (Graph Pad Software, San Diego, CA). The % inhibition values at […] were calculated with respect to enzyme activity.

CDK12, sequence (Q9NYV4 whole entry): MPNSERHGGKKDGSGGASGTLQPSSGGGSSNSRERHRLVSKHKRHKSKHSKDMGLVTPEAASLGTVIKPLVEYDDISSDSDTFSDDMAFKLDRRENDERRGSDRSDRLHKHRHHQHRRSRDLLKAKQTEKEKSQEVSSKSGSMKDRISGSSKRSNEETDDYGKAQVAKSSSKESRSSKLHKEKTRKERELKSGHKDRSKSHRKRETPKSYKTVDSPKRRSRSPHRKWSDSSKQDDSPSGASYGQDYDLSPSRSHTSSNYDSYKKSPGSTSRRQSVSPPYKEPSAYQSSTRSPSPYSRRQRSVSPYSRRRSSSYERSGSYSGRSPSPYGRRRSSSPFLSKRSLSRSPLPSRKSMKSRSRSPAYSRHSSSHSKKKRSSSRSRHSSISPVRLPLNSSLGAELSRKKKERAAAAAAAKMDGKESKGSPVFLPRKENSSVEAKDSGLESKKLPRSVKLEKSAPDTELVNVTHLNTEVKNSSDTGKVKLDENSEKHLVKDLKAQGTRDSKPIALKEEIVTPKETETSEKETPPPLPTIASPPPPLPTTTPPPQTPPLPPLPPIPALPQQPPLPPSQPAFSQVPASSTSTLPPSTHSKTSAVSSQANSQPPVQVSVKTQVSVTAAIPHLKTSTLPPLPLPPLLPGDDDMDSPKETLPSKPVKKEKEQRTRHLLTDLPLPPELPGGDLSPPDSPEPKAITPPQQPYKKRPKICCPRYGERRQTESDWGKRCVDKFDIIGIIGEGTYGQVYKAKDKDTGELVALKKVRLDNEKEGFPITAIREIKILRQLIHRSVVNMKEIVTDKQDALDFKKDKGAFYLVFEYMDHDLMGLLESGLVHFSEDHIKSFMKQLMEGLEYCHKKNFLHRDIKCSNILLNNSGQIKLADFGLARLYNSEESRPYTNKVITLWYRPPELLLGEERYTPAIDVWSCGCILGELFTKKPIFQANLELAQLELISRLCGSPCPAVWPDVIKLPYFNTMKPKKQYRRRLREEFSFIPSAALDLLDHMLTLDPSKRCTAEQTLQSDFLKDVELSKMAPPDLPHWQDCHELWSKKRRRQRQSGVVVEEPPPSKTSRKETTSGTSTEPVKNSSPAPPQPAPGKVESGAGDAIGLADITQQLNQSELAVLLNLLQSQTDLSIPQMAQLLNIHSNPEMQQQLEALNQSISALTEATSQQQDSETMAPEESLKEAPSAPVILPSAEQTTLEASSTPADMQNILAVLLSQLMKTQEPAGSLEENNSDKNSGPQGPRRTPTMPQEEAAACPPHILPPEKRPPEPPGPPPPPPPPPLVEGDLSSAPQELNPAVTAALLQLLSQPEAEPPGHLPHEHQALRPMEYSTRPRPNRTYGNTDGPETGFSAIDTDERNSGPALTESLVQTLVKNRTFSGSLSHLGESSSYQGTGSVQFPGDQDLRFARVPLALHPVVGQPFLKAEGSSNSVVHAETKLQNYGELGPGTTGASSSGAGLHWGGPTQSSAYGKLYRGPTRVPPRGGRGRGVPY
CDK12, sequence (O75909 whole entry partner): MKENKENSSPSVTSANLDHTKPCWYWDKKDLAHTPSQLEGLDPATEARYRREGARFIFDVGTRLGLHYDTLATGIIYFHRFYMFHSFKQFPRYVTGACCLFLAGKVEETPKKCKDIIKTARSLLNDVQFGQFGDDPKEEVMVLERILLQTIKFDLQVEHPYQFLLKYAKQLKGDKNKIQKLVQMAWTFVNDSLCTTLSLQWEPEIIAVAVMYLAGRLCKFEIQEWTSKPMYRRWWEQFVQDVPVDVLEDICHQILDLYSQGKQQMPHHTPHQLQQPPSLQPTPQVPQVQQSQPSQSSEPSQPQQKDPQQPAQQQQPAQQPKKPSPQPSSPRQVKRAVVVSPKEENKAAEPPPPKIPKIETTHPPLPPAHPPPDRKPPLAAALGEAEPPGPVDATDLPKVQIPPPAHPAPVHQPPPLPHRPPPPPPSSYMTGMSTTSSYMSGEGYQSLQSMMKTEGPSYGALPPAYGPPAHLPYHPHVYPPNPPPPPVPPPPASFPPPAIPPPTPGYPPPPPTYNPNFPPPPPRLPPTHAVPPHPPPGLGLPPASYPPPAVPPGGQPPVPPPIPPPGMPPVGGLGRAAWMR

| SMILES | IC50 [µM] | inhibition at 10 µM [%] | CDK12 % Inhibition @ 10 μM [%] |
| --- | --- | --- | --- |
| CNC(=O)C(C)Oc1cc(NC(=O)Cc2ccc(-c3cccc(C#N)n3)nc2)ncc1Cl (racemic) [Compound 155, 2-((5-chloro-2-(2-(6′-cyano-[2,2′-bipyridin]-5-yl)acetamido)pyridin-4-yl)oxy)-N-methylpropanamide] | 0.01 to 0.1 | 97 | – |
| CNC(=O)C(C)Oc1cc(NC(=O)Cc2ccc(C3=CCN(C#N)CC3)nc2)ncc1Cl (single isomer, unassigned) [Compound 2, 2-((5-chloro-2-(2-(1′-cyano-1′,2′,3′,6′-tetrahydro-[2,4′-bipyridin]-5-yl)acetamido)pyridin-4-yl)oxy)-N-methylpropanamide] | < 0.01 | 90 | – |
| CNC(=O)C(C)Oc1cc(NC(=O)Cc2ccc(C3=CCN(C#N)CC3)nc2)ncc1Cl (single isomer, unassigned) [Compound 3, 2-((5-chloro-2-(2-(1′-cyano-1′,2′,3′,6′-tetrahydro-[2,4′-bipyridin]-5-yl)acetamido)pyridin-4-yl)oxy)-N-methylpropanamide] | < 0.01 | 84 | – |
| N#CN1CCC=C(c2ccc(CC(=O)Nc3cc(OC4CCCOC4)c(Cl)cn3)cn2)C1 (single isomer, unassigned) [Compound 44, N-(5-chloro-4-((tetrahydro-2H-pyran-3-yl)oxy)pyridin-2-yl)-2-(1′-cyano-1′,2′,5′,6′-tetrahydro-[2,3′-bipyridin]-5-yl)acetamide] | < 0.01 | 89 | – |
| N#CN1CCC=C(c2ccc(CC(=O)Nc3cc(OC4CCCOC4)c(Cl)cn3)cn2)C1 (single isomer, unassigned) [Compound 45, N-(5-chloro-4-((tetrahydro-2H-pyran-3-yl)oxy)pyridin-2-yl)-2-(1′-cyano-1′,2′,5′,6′-tetrahydro-[2,3′-bipyridin]-5-yl)acetamide] | < 0.01 | – | 92 |
| COc1cc(NC(=O)C(C)c2ccc(C3=CCCN(C#N)C3)nc2)ncc1Cl (single isomer, unassigned) [Compound 49] | < 0.01 | 89 | – |
| COc1cc(NC(=O)C(C)c2ccc(C3=CCN(C#N)CC3)nc2)ncc1Cl (single isomer, unassigned) [Compound 52] | < 0.01 | 102 | – |
| CNC(=O)C(C)Oc1cc(NC(=O)Cc2ccc(C3=CCCN(C#N)C3)nc2)ncc1Cl (single isomer, unassigned) [Compound 57, 2-((5-chloro-2-(2-(1′-cyano-1′,2′,5′,6′-tetrahydro-[2,3′-bipyridin]-5-yl)acetamido)pyridin-4-yl)oxy)-N-methylpropanamide] | < 0.01 | 78 | – |
| CNC(=O)C(C)Oc1cc(NC(=O)Cc2ccc(C3=CCCN(C#N)C3)nc2)ncc1Cl (single isomer, unassigned) [Compound 58, 2-((5-chloro-2-(2-(1′-cyano-1′,2′,5′,6′-tetrahydro-[2,3′-bipyridin]-5-yl)acetamido)pyridin-4-yl)oxy)-N-methylpropanamide] | < 0.01 | – | 98 |
| CC1CC(Oc2cc(NC(=O)Cc3ccc(C4=CCCN(C#N)C4)nc3)ncc2Cl)CCN1C (single isomer, unassigned) [Compound 64, N-(5-chloro-4-((1,2-dimethylpiperidin-4-yl)oxy)pyridin-2-yl)-2-(1′-cyano-1′,2′,5′,6′-tetrahydro-[2,3′-bipyridin]-5-yl)acetamide] | < 0.01 | 92 | – |
| COc1cc(NC(=O)Cc2ccc(C3=CCN(C#N)C(C)C3)nc2)ncc1Cl (single isomer, unassigned) [Compound 66, N-(5-chloro-4-methoxypyridin-2-yl)-2-(1′-cyano-2′-methyl-1′,2′,3′,6′-tetrahydro-[2,4′-bipyridin]-5-yl)acetamide] | 0.01 to 0.1 | 88 | – |

From US20260000692A1, “Substituted N-(Pyridin-2-yl)Acetamide Derivatives as CDK12/13 Inhibitors” (Aurigene Oncology Limited, priority 2022, published 2026)
